Several values for one entry are separate records, joined by “and”; a condition that tells them apart may be missing. Identical values can stand only once. Like-named read-outs stand apart in the source and are kept apart here.
Experiments:
mo-DCs [1] = assay: Alexa-NadAΔ351-405 binding to mo-DCs (flow cytometry, Scatchard analysis); set-up: species or system human; conditions: Scatchard plot
Method: In some cases, DCs primed or not with IFN-γ were treated at 37° C. for 1 hour with FCS/RPMI containing Bafilomycin A1 200 nM, incubated at 37° C. (in RPMI medium supplemented with 10% FBS and Bafilomycin A1) or 0° C. (in PBS supplemented with 10% FBS) for 3 hours with different concentrations (0.0375-5 μM) of Alexa-NadAΔ351-405 or NadA. Afterward cells were washed and suspended in FACS buffer for FACS analysis. Scatchard plots were constructed from data obtained from cell-associated mean fluorescence intensities due to cell-bound Alexa NadA were measured. The dissociation constant Kd and maximal binding capacities were then determined by Scatchard analyses.

mo-DCs [2] = assay: Real-time PCR of cytokine mRNA in mo-DCs; type: cell-based, human
Method: Mo-DC were pre-treated or not with IFN-γ 1000 U/ml and stimulated with NadA […] and LPS […] for 3-5-8 h. Treated and untreated cells were pelleted and used for RNA isolation. Total RNA was extracted using the TRIzolÒ reagent (GibcoBRL) according to the manufacturer's instruction, precipitated and resuspended in […] of RNAse free water (Gibco). RNA was quantified with a fluorescence spectrophotometer (BeckmanDU 530). First strand cDNA was prepared from […] of total RNA by using the Superscript™ II Reverse Transcriptase (Invitrogen) with oligodT primers (Sigma Genosys). The cDNA levels of IL12p35, IL12p40, IL-23p19, TNF-α and IL-6 were quantified by Real Time quantitative PCR using a qPCRTM Core Kit for Sybr Green I (Eurogentec) with a GeneAmp 5700 Sequence Detection System according to the manifacturer's instructions (Applied Biosystems). After an initial denaturation step at 95° C. for 10 min, temperature cycling was initiated. Each cycle consisted of 30 sec at 95° C. and 30 sec at 60° C. […]
All amplification products were cloned into a TOPO TA vector (Invitrogen) and quantified by Beckman DU 530 spectrophotometer. […]
The cDNA levels during the linear phase of amplification were normalized against HMBS. […] CT values were determined by the GeneAmp 5700 SDS software using fluorescence threshold manually set and exported into Excel for analysis.

[3] = Heparin-agarose affinity chromatography; type: binding; conditions: salt gradient 0.05-3M NaCl
Method: Using, affinity chromatography with different buffers (phosphate 20 mM and hepes 20 mM), pH (5.5, 7.4 and 8.0) and CaCl2 concentrations, the binding of NadA to heparin was further investigated. A solution of hepes 20 mM containing 5 μg NadA was added to 100 μl of heparin-agarose pre-equilibrated in the same buffer. After washing, bound protein was eluted using a salt gradient (0.05-3M NaCl). All the fractions from the previous steps were collected and transferred to nitrocellulose membrane using Dot-blot. The protein was detected with a rabbit polyclonal anti-NadA antibody and phosphatase alcalyne-conjugated goat anti-rabbit anti-IgG with its substrate. This protocol has shown a heterogeneous behaviour for NadA. A fraction of the protein elutes at physiological salt concentrations (100-150 mM NaCl) and a further one elutes at high salt concentrations (up to 3M NaCl).

Chang cells = assay: NadA binding to Chang cells (heparin, competition with non-labelled NadA); set-up: species or system human; conditions: NadA 600 nM, fluorescence microscopy
Method: Chang and CHO-K1 cells were incubated for 3 h at 37° C. with Alexa^488-labeled NadAΔ351-405 (250 nM) in the presence or the absence of non-labelled NadAΔ351-405 (0, 1, 2.5 or 5 μM), washed and analyzed by FACS; results shown are the relative MFI values ±SE, n=3.
Chang cells were incubated at 37° C. for 3 h with NadA 600 nM and re-incubated 10 min at 37° C. with heparin.

monocytes = assay: NadA binding to monocytes; set-up: species or system human
Method: The graphs plot the mean fluorescence intensities (MFI) ±SD measured in monocytes that have been incubated with NadAΔ351-405-Alexa, at different concentrations (A), or with 100 nM NadAΔ351-405-Alexa in presence of increasing concentrations of unlabelled protein (B), for 3 hours at 37° C. or 0° C. The reported data are the average of three independent experiments repeated in triplicate.
The dose-dependent preferential association of NadA to CD14^+ monocytes was also confirmed by MFI analysis. Competition using non-labelled ligand ascertained whether NadA binding was specific (FIG. 12). […] Based on the molecular weight of the NadA monomer, this value is in fact ˜1 μM, since the recombinant protein used in the experiment is a homo-trimer.

human monocytes [4] = assay: Cytokine and chemokine secretion by human monocytes (Bio-Plex, IL-23 ELISA); type: cell-based
mo-DCs [5] = assay: Morphology of mo-DCs (light microscopy); type: cell-based, human; conditions: IFN-γ priming 18 hours, NadAΔ351-405 1.5 μM, 3 hours
human monocytes [6] = assay: Soluble mediator secretion by monocytes after 3 and 7 culture days, re-stimulated with LPS; type: cell-based
Method: The secretion of the main immune mediators by human monocytes, after 3 and 7 culture days following stimulation with NadAΔ351-405 or LPS, was tested with a Bioplex immune array after 24 hours incubation with LPS. Analysis was performed to test pro-inflammatory cytokine TNFα and IL6, regulatory cytokine IL-10 and IL-12(p70) and chemokine IL-8, MCP-1, MIP1-α, RANTES and […] secretion.

For NadAΔ351-405, which Kd (mo-DCs [1]; read-out: Kd1, high affinity binding sites) is on record?
The Kd was 50 to 100 nM and 90 nM.

And the Kd (mo-DCs [1]; read-out: Kd2, low affinity binding sites)?
The Kd was 3000 to 5000 nM and 4000 nM.

What about the “IL12-p40, IL12-p35 and IL-23p19 transcription” value (mo-DCs [2]) of the same substance?
Its value is “increased by NadA only if cells were primed with IFN-γ”.

What about the “transcription activities of genes encoding IL-6, TNFα, p40, p35 and p19 relative to LPS-activated cells” value (mo-DCs [2]; IFN-γ primed mo-DCs) of the same substance?
Its value is less than 1%.

And the “NaCl concentration of elution from heparin-agarose, further fraction” value [3]?
The value was “up to 3 M”.

What about the “NaCl concentration of elution from heparin-agarose, one fraction” value [3] of the same substance?
Its value is 100 to 150 mM.

And the “protein binding to Chang cells in the presence of heparin” value (Chang cells)?
The value was “dose-dependent reduction”.

And the “decrease of the signal associated to monocytes by excess non-labelled NadA” value (monocytes; 5 uM non-labelled, 125 nM Alexa-NadA, 37° C., BafA1)?
Its value is −50%.

What about the “affinity (Kd) of association to monocyte” value (monocytes; NadA-I125 conjugate, Scatchard Plot) of the same substance?
The value was roughly 3000 nM.

And the “Kd of association to monocyte, value for the homo-trimer” value (monocytes; corrected because the recombinant protein is a homo-trimer)?
Its value is roughly 1000 nM.

What about the IL-10 production (human monocytes [4]) of the same substance?
Its IL-10 production is “induced the production”.

And the IL-23 expression (human monocytes [4])?
The IL-23 expression was “only in the presence of IFNγ”.

What about the MCP-1 production (human monocytes [4]) of the same substance?
The MCP-1 production was “significant levels”.

And the “IL-1α, IL-1β and TNFα secretion” value (human monocytes [4]; NadA alone)?
Its value is “not significantly induced”.

What about the IL-8 secretion (human monocytes [4]; NadA alone) of the same substance?
Its IL-8 secretion is “significant secretion”.

And the IP-10 production (human monocytes [4]; NadA alone)?
Its IP-10 production is “In neither monocytes nor macrophages was NadA alone able to produce IP-10”.

And the “IL-12(p40) and IL-12(p70) expression” value (human monocytes [4]; alone or in the presence of LPS)?
Its value is “not significantly expressed”.

And the “expression of IL-1α and TNFα” value (human monocytes [4]; co-stimulation with LPS)?
Its value is “inhibited”.

What about the GM-CSF secretion (human monocytes [4]; even with IFNγ co-stimulation) of the same substance?
Its GM-CSF secretion is “does not stimulate secretion”.

What about the “IL-10 expression (so in the source)” value (human monocytes [4]; only in the presence of IFNγ and LPS) of the same substance?
Its value is “efficiently increased”.

What about the IL-6 secretion (human monocytes [4]; presence or absence of LPS) of the same substance?
Its IL-6 secretion is “significant secretion”.

What about the MIP-1α production (human monocytes [4]; with or without co-stimulus) of the same substance?
The MIP-1α production was “produced”.

What about the cell morphology (mo-DCs [5]) of the same substance?
Its cell morphology is “some cells became elongated and tended to cluster”.

And the IL-6 production (human monocytes [6]; after 3 days of culture, re-stimulated with LPS)?
Its IL-6 production is “greater production of IL-6 compared to LPS-treated cells”.

And the IL-10 production (human monocytes [6]; cultured cells re-stimulated with LPS)?
Its IL-10 production is “able to induce IL-10 production”.
